Patent US9974825B2, “Peptides Des-[Asp1]-[Ala1], angiotensin-(1-7) agonist and pharmaceutical compositions for the treatment of diseases” (UNIVERSIDADE FEDERAL DE MINAS GERAIS, priority 2008, dated 2018)

Tests used:
[1] = tested on: aorta rings of Mas+/+ mice; experiment: Vasorelaxation in phenylephrine-precontracted aorta rings of wild-type (Mas+/+) mice; format: cell-based, mice (C57/BI-6 and FVB/N); settings: both lineages C57/BI-6 and FVB/N, precontracted with fenilefrine 0.1 μM
Method: (§1) This example describes the vasodilating effect of Ala^1-Ang-(1-7), independently of the Mas receptor, on aorta rings of mice with genetic deletion of the Mas receptor (Mas−/−) and wild-type mice (Mas+/+) from two different lineages, C57/BI-6 and FVB/N.
(§2) The original rings of the descending thoracic aorta (2 mm), free from adipose tissue and connective tissue, were incubated in gasified solution (95% O2 and 5% CO2) of Krebs-Henseleit (mmol/L): NaCl 110.8, KCl 5.9, NaHCO3 25.0, MgSO4 1.07, CaCl2 2.49, NaH2PO4 2.33 and glucose 11.51, under a temperature of 37° C. and a 0.5 g tension, being equilibrated for 1 hour. The functional presence of endothelium was tested by its relaxing capacity produced by acetylcholine [ACh] (10 μM) on vessels precontracted with fenilefrine (0.3 μM). Only the vessels showing relaxation above 70% of extended contraction produced by fenilefrine were taken into account. […]
(§3) The aorta rings of mice Mas−/− and Mas+/+ from both lineages (C57/BI-6 and FVB/N) were precontracted to achieve the same tension level (approximately a 1.0 g tension) at a submaximum concentration of fenilefrine (0.1 μM). […] The vasodilating effects of Ala^1-Ang-(1-7) and Ang-(1-7) were expressed as a percentage of relaxation relative to the maximum contraction induced by fenilefrine. […]

[2] = tested on: aorta rings of Mas−/− mice; experiment: Vasorelaxation in precontracted aorta rings of mice with genetic deletion of the Mas receptor (Mas-/-); format: cell-based, mice (C57/BI-6 and FVB/N); settings: both lineages C57/BI-6 and FVB/N, precontracted with fenilefrine 0.1 μM
Method: as §1, §2, §3

[3] = tested on: aorta rings in absence of functional endothelium; experiment: Vasorelaxation in aorta rings without functional endothelium; format: cell-based, mice (C57/BI-6 and FVB/N); settings: vessels not presenting functional endothelium (Mas+/+ and Mas−/−, C57/BI-6 and FVB/N)
Method: This example describes the endothelium-dependence of the Ala^1-Ang-(1-7) vasorelaxing activity.
as §2, with “μM). In accordance with experimental protocols for its absence, the endothelium was removed with a slight friction on the vessel internal surface.” for “μM).”, “relaxation by acetylcholine” for “relaxation”
The Ala^1-Ang-(1-7) vasorelaxing activity was measured in vessels (Mas+/+ and Mas−/−, of lineages C57/BI-6 and FVB/N) in the presence or absence of precontracted functional endothelium (with approximately a 1.0 g tension) and a submaximum concentration of fenilefrine (0.1 μM). […] The vasodilating effects of Ala^1-Ang-(1-7) and Ang-(1-7) were expressed as a relaxation percentage relative to the maximum contraction induced by fenilefrine. […]

[4] = molecular target: Mas receptor; settings: Santos et al., PNAS 2003; cited from earlier work

| Substance | vasorelaxation (relaxation relative to maximum contraction induced by fenilefrine) [1] | vasodilating response [2] | vasodilating effect [3] | Kd [4] [nM] |
| --- | --- | --- | --- | --- |
| Ala^1-Arg^2-Val^3-Tyr^4-Ile^5-His^6-Pro^7 [Ala^1-Ang-(1-7)] | produced vasorelaxation | totally preserved | abolished |  |
| Asp^1-Arg^2-Val^3-Tyr^4-Ile^5-His^6-Pro^7 [Ang-(1-7)] | produced vasorelaxation | absence |  | 0.33 |
